# Assay results taken from ChEMBL document CHEMBL1201862, “PubChem BioAssay data set” (2004).
# Active and inactive are the calls of the source.
# Columns and labels:
# [1] = molecular target: Paired box protein Pax-8 (Homo sapiens, UniProt Q06710); experiment: inhibitors of PAX8-driven TPO luciferase reporter, dose response, RMG-I cells, cherry-pick (AID 687027); format: functional, cell-based;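 also: luciferase reporter driven by Pax8 target thyroperoxidase promoter measured by SteadyGlo luminescence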
# [2] = A2780 ovarian cancer cell cytotoxicity, dose response, cytotoxicity control, plate reader, dry powder samples (AID 743046); format: functional, cell-based
# [3] = NIH:OVCAR-3 ovarian cancer cell cytotoxicity, dose response, PAX8 inhibitor project, plate reader, dry powder samples (AID 743044); format: functional, cell-based
# [4] = cytotoxicity in OVCAR8 ovarian cancer cells, dose response, PAX8 project, cell-based, plate reader, dry powder samples (AID 743197); format: functional; details: OVCAR-8
# [5] = A549 cell cytotoxicity, dose response, cytotoxicity control, plate reader, cherry-pick, antagonist series (AID 743412); format: functional, cell-based
# [6] = HepG2 cell cytotoxicity, dose response, cytotoxicity control, plate reader, cherry-pick, antagonist series (AID 743416); format: functional, cell-based
# [7] = IGROV1 ovarian cancer cell cytotoxicity, dose response, PAX8 inhibitor project, plate reader, dry powder samples (AID 743043); format: functional, cell-based; details: IGROV-1
# [8] = LGR2 antagonists, dose response, cell-based, HEK293, CRE-luciferase reporter, cherry pick, set 2 (AID 743343); format: functional;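 also: transfected cells were stimulated with diluted bursicon conditioned medium after compound addition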
# [9] = MC4R antagonists, dose response, counter-screen for LGR2 antagonist project, cell-based, plate reader, cherry pick (AID 743444); format: functional;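 also: transfected HEK 293 cells stimulated with alpha-MSH peptide; potency of inhibitors of the alpha-MSH evoked signal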
# [10] = HEK293 cell cytotoxicity, dose response, cytotoxicity control, plate reader, cherry-picked samples (AID 743446); format: functional, cell-based
# [11] = P. falciparum 3D7-ScDHODH growth inhibitors, dose response, SYBR Green, dry powder samples (AID 1159570); format: functional, cell-based;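 also: parasite growth measured after 72 hours of compound exposure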
# [12] = HepG2 cell cytotoxicity, dose response, cytotoxicity control, plate reader, dry powder samples (AID 1159569); format: functional, cell-based;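 also: inhibitor potency with signal falling toward the positive control level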
# [13] = P. falciparum Dd2 growth inhibitors, dose response, SYBR Green, cherry-picked samples (AID 1159567); format: functional, cell-based
# [14] = P. falciparum Dd2 growth inhibitors, dose response, SYBR Green, dry powder samples (AID 1159566); format: functional, cell-based;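 also: potency for growth inhibition with lower SYBR green DNA signal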
# [15] = HepG2 cell cytotoxicity, dose response, cytotoxicity control, cherry-picked samples (AID 1159577); format: functional, cell-based
# [16] = P. falciparum ATP4 D1247Y mutant growth inhibitors, dose response, NITD609-resistant line, SYBR Green, dry powder (AID 1159571); format: functional, cell-based;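 also: parasites synchronized at ring stage by sorbitol before testing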
# [17] = molecular target: T1, Luciferin 4-monooxygenase (Photinus pyralis, UniProt P08659); experiment: firefly luciferase enzyme inhibitors, dose response, biochemical, luminescence (AID 1891)
# [18] = Luminescence Cell-Based Dose Confirmation HTS to Identify Inhibitors of Platelet Dense Granule Release. [Related pubchem assays: 1663 (Primary HTS), 1678 (Summary of Project)]; format: functional
# [19] = molecular target: T2, Mannose-6-phosphate isomerase (Homo sapiens, UniProt P34949); experiment: human PMI inhibitors, high substrate, primary screen, biochemical, fluorescence intensity, high mannose 6-phosphate (AID 1220)
# T2 sequence (P34949 whole entry): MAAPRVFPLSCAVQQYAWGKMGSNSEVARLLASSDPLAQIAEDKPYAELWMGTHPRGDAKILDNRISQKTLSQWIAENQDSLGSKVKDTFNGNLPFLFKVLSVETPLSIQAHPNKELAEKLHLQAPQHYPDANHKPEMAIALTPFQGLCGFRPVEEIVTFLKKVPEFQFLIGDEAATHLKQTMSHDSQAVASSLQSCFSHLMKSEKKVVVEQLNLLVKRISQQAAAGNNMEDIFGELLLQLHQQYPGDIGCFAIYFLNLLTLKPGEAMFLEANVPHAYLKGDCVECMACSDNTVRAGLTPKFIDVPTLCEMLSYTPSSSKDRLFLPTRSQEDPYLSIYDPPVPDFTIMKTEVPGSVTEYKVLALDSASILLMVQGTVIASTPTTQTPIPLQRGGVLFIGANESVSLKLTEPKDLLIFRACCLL
# [20] = molecular target: Long-chain-fatty-acid--AMP ligase FadD28 (Mycobacterium tuberculosis, UniProt P9WQ59); experiment: Fluorescence polarization aasay to screen for inhibitors that compete for the binding of FadD28 to a bisubstrate Measured in Biochemical System Using Plate Reader - 2147-01_Inhibitor_Dose_CherryPick_Activity.; format: functional, Mycobacterium tuberculosis H37Rv
# [21] = molecular target: T3, Oxysterols receptor LXR-beta (Homo sapiens, UniProt P55055); format: functional, cell-based;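 also: Cell-based luminescence dose-response assay of agonist activity at LXR, run as a confirmatory counterscreen to a daf-12 agonist screen; HEK293 cells with Gal4-LXR fusion and GAL4-driven luciferase reporter; agonist potency from rising luciferase signal of a Gal4-LXR reporter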
# T3 sequence (P55055 whole entry): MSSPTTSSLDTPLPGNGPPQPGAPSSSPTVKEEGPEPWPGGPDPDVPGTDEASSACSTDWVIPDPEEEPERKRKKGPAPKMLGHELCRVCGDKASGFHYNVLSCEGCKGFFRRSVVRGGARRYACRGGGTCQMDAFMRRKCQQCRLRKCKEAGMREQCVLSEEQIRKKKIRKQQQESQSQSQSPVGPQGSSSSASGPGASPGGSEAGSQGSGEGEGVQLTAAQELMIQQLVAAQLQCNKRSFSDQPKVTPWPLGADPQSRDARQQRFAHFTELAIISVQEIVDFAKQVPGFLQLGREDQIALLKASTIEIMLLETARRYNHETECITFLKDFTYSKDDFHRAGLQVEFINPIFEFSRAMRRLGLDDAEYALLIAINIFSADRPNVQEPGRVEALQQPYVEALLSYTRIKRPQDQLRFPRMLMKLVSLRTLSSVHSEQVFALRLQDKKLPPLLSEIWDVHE
# [22] = cells
# [23] = M. tuberculosis H37Rv growth inhibitors, H37Rv strain (AID 1626); format: functional
# [24] = inhibitors of clade B AD8 Env fusion, dose response, cell-based, cherry-pick (AID 652062); format: functional;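 also: luciferase signal from cell-cell fusion driven by HIV-1 clade B AD8 Env; potency is for inhibitors of fusion seen as a drop in luminescence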
# [25] = IOSE-T80 ovarian epithelial cell cytotoxicity, dose response, cytotoxicity control for PAX8 inhibitor project, plate reader, dry powder samples (AID 743045); format: functional, cell-based
# [26] = inhibitors of PGC1a acetylation in cells, dose response, cell-based, cherry-picked samples (AID 720514); format: functional;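 also: potency may reflect raised or lowered acetylation signal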
# [27] = non-specific cell cytotoxicity, dose response, cytotoxicity control for PAX8 inhibitor project, plate reader, dry powder samples (AID 743021); format: functional, cell-based
# [28] = molecular target: Peroxisome proliferator-activated receptor gamma/Nuclear receptor coactivator 1 (Homo sapiens, UniProt P37231); experiment: (§1) TR-FRET dose response biochemical High Throughput Screening assay for agonists of the steroid receptor coactivator 1 (SRC-1) recruitment by the peroxisome proliferator-activated receptor gamma (PPAR gamma): non-selective agonists. [Related pubchem assays (depositor defined):AID1300, AID1808, AID504735, AID631]; format: protein assay
# [29] = molecular target: T1, Luciferin 4-monooxygenase; experiment: Counter Screen for Luciferase-based Assay Positives. [Related pubchem assays: 620, 618, 411 ]
# [30] = molecular target: Peroxisome proliferator-activated receptor gamma/Nuclear receptor coactivator 3 (Homo sapiens, UniProt P37231); experiment: as §1, with “3 (SRC-3)” for “1 (SRC-1)”, “assays: 1301 (Confirmation screen.), 1048 (Primary screen.)]” for “assays (depositor defined):AID1300, AID1808, AID504735, AID631]”; format: functional
# [31] = Luminescence-based dose response cell-based high throughput screening assay for cytotoxic compounds using the IEC-6 intestinal epithelial cell line. [Related pubchem assays: 1858 (Summary AID.), 1825 (Counterscreen.), 1907 (Confirmation screen.)]; format: functional
# [32] = system: HT-1080; experiment: cytotoxicity in HT1080 fibrosarcoma cells, cell-based, fluorescence readout (AID 620); format: functional; details: Homo sapiens
# [33] = molecular target: Peroxisome proliferator-activated receptor gamma/Nuclear receptor coactivator 2 (Homo sapiens, UniProt P37231); experiment: TR-FRET dose response biochemical High Throughput Screening assay for agonists of the steroid receptor coactivator 2 (SRC-2) recruitment by the peroxisome proliferator-activated receptor gamma (PPAR gamma): non-selective agonists. [Related pubchem assays: 1297, 1032 ]; format: functional
# [34] = HeLa 2N DNA content increase, dose response, cell-based, IC50 (AID 1117349); format: functional
# [35] = HeLa 4N DNA content increase, dose response, cell-based, IC50 (AID 1117351); format: functional
# [36] = molecular target: Cytochrome P450 2D6 (Homo sapiens, UniProt P10635);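 also: CYP2D6 member of a cytochrome P450 panel assay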
# [37] = molecular target: RNA-editing ligase 1, mitochondrial (Trypanosoma brucei brucei, UniProt P86926); experiment: TbREL1 ligase inhibitors, dose response, biochemical, fluorescence, Trypanosoma brucei (AID 1117295); format: functional
# Sequence of RNA-editing ligase 1, mitochondrial (P86926 whole entry): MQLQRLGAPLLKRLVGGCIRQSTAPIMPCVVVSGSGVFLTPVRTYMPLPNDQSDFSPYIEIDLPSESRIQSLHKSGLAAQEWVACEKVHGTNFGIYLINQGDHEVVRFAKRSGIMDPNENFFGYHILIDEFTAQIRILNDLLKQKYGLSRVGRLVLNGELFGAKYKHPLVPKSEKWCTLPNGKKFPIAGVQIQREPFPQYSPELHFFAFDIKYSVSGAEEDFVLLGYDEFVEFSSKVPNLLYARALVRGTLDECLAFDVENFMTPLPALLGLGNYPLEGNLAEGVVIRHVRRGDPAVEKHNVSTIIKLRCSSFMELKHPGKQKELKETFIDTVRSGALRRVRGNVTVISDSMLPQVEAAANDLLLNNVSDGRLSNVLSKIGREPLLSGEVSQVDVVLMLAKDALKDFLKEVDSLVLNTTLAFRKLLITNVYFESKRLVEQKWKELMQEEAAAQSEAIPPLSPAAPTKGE
# Sequence of Paired box protein Pax-8 (Q06710 whole entry): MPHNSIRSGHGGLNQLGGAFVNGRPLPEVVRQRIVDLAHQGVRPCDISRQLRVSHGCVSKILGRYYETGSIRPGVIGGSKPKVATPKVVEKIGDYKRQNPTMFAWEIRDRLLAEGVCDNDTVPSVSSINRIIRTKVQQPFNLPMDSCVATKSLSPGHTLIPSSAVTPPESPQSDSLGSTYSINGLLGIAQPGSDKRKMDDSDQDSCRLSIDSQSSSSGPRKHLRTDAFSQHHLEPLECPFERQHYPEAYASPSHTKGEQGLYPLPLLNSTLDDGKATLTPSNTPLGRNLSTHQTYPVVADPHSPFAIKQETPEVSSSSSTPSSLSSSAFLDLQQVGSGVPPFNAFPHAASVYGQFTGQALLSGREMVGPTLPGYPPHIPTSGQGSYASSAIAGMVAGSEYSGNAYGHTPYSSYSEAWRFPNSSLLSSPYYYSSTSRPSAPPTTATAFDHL
# T1 sequence (P08659 whole entry): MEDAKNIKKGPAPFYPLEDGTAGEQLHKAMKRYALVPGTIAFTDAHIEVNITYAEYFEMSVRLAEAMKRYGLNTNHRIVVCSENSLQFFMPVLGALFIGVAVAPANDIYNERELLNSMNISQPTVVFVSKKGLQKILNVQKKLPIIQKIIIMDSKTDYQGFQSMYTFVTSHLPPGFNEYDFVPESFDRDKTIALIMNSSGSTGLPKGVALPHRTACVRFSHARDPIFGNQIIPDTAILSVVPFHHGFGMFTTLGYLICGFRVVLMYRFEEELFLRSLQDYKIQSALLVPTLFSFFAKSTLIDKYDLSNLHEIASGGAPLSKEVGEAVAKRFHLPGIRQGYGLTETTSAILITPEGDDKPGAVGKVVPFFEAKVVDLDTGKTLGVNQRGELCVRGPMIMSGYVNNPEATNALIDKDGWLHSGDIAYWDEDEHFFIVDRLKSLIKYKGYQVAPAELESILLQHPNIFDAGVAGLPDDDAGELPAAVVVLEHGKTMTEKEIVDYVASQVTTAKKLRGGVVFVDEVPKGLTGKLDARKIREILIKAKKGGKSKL
# Sequence of Cytochrome P450 2D6 (P10635 whole entry): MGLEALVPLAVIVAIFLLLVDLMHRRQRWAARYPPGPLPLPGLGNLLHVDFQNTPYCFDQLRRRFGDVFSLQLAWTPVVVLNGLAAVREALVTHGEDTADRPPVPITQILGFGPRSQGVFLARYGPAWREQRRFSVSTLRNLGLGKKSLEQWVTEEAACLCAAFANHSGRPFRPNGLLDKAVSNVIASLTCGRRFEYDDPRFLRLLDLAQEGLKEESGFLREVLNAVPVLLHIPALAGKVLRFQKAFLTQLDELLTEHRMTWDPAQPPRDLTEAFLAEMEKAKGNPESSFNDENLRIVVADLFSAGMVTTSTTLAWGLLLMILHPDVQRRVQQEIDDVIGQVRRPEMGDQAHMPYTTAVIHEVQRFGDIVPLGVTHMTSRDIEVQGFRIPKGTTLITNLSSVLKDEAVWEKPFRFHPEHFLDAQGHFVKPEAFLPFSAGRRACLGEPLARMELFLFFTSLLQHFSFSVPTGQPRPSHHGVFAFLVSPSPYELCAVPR
# Sequence of Long-chain-fatty-acid--AMP ligase FadD28 (P9WQ59 whole entry, the tested form may be a part): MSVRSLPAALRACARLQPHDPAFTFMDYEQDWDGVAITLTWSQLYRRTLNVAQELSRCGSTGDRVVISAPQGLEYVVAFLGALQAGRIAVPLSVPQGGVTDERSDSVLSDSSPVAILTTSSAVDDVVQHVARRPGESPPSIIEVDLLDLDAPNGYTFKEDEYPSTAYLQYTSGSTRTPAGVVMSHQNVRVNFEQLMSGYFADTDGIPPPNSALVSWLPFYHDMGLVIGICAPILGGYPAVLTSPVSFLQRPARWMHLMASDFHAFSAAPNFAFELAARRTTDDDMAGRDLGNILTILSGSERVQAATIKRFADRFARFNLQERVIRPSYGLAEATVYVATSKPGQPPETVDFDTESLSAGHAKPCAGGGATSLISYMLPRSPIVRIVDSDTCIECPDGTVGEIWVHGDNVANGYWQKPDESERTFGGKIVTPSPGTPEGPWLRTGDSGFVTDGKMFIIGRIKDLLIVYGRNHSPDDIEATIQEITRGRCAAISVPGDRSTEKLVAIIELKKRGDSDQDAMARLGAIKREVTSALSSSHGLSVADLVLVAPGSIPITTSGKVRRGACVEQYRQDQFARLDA
# Sequence of Peroxisome proliferator-activated receptor gamma/Nuclear receptor coactivator 3 (P37231 whole entry): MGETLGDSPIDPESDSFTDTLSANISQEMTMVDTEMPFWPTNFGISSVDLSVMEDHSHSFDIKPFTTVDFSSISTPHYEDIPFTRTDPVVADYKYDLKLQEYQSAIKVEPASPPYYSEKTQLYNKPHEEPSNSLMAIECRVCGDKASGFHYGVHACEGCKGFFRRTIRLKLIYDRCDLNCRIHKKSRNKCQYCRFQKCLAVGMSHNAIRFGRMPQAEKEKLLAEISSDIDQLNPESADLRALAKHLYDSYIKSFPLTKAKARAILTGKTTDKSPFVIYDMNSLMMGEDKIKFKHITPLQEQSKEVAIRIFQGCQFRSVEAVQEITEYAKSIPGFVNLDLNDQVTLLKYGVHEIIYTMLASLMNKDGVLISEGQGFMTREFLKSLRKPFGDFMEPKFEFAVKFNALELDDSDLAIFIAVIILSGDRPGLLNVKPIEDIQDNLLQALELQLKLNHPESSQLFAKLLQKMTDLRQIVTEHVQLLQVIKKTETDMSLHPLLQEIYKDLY
# Sequence of Peroxisome proliferator-activated receptor gamma/Nuclear receptor coactivator 3 (Q9Y6Q9 whole entry, further chain): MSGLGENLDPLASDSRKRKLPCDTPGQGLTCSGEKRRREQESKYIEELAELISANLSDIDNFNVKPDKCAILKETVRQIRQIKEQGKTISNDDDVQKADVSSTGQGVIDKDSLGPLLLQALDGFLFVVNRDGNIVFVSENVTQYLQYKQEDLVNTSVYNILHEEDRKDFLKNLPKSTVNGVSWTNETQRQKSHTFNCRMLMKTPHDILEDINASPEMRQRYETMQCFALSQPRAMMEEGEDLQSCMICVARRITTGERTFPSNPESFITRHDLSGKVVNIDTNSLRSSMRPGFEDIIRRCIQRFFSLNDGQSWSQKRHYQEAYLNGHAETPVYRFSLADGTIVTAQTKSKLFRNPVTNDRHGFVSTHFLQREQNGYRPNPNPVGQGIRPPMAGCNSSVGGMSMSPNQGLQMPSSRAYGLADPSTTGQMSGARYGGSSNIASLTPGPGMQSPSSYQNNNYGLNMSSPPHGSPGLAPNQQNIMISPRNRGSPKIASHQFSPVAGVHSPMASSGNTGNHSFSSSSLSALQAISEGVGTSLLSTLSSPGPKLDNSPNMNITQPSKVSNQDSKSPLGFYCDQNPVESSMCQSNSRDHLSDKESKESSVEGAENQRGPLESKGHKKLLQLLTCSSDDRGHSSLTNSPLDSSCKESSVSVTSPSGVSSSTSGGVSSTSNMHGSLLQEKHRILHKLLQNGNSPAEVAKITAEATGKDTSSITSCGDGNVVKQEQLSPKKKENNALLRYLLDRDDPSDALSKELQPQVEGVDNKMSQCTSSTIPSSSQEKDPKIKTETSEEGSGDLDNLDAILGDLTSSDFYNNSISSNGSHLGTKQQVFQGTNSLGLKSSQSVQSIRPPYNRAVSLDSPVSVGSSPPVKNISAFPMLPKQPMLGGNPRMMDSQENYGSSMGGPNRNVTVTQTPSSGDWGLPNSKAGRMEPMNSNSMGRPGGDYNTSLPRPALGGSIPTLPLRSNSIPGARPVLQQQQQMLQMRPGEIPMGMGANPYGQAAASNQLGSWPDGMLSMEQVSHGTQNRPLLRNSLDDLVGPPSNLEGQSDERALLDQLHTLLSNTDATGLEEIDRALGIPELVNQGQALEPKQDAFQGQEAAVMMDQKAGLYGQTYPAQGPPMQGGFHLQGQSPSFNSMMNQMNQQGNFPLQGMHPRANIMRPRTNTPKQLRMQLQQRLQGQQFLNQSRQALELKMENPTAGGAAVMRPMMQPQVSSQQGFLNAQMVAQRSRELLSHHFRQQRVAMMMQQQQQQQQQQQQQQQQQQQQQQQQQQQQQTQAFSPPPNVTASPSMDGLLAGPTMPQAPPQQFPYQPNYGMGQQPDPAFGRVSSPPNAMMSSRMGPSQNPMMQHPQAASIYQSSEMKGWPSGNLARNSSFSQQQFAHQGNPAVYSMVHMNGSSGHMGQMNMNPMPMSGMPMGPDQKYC
smiles,measurement,setting,value
COc1ccc(S(=O)(=O)N2CCCCN3[C@H](CO)[C@@H](c4ccc(C#CC(C)C)cc4)[C@H]3C2)cc1,AC50,[1],12 µM (active)
same,AC50,[2],27.1 µM (active)
same,AC50,[3],34 µM (active)
same,AC50,[4],> 70 µM (inactive)
C[C@@H]1CN([C@@H](C)CO)C(=O)c2c(c3ccccc3n2C)-c2ccccc2CO[C@@H]1CN(C)S(=O)(=O)c1ccc(C(F)(F)F)cc1,AC50,[1],6.8 µM (active)
same,AC50,[5],22.3 µM (active)
same,AC50,[6],21.9 µM (active)
same,AC50,[7],58.4 µM (active)
same,AC50,[8],51.6 µM (active)
same,AC50,[9],54.3 µM (active)
same,AC50,[10],34.5 µM (active)
same,AC50,[11],2.24 µM (active)
same,AC50,[12],20.9 µM (active)
same,AC50,[13],2.57 µM (active)
same,AC50,[14],1.63 µM (active)
same,AC50,[15],> 39 µM (inactive)
same,AC50,[16],2.21 µM (active)
C/N=c1\scc(-c2ccccc2F)n1/N=C/c1ccc(O)c(O)c1O,EC50,[17],1.68 µM (active)
same,EC50,[18],2.46 µM (active)
same,IC50,[19],25.8 µM (active)
same,AC50,[20],32 µM (inactive)
same,EC50,[21],> 67.5 µM (inactive)
same,EC50,[22],> 67.5 µM (inactive)
COc1ccc(/N=C/C2=C(O)OCC2)cc1,IC50,[23],> 100 µM (active)
COc1ccccc1C#Cc1ccc([C@H]2[C@H](C#N)N(C(=O)C3CCCC3)[C@H]2CO)cc1,AC50,[1],4.38 µM (active)
same,AC50,[24],9.51 µM (active)
same,AC50,[25],21.8 µM (active)
same,AC50,[26],4.17 µM (active)
same,AC50,[3],8.21 µM (active)
same,AC50,[5],> 52 µM (inactive)
same,AC50,[7],32.2 µM (active)
same,AC50,[8],9.13 µM (active)
same,AC50,[27],19.8 µM (active)
same,AC50,[9],3.59 µM (active)
same,AC50,[4],10.6 µM (active)
same,AC50,[10],> 52 µM (inactive)
CN1/C(=C\C=C\C2=[N+](C)c3ccc4ccccc4c3C2(C)C)C(C)(C)c2ccccc21.[O-][Cl+3]([O-])([O-])[O-],EC50,[28],13.4 µM (inactive)
same,EC50,[29],7.77 µM (active)
same,EC50,[30],> 79.4 µM (not active)
same,IC50,[31],0.761 µM (active)
same,EC50,[32],> 50 µM (not active)
same,EC50,[33],8.19 µM (active)
O=C(C1CCC1)N1C[C@@H]2N[C@H](C1)[C@@H]2c1ccc(-c2ccccc2F)cc1,AC50,[11],3.03 µM (active)
same,AC50,[12],19.5 µM (active)
same,AC50,[13],2.24 µM (active)
same,AC50,[14],2.5 µM (active)
same,AC50,[16],3.47 µM (active)
CCCCc1ccc2[nH]c(NC(=O)OC)nc2c1 [PARBENDAZOLE],IC50,[34],0.0104 µM (active)
same,IC50,[35],0.0106 µM (active)
same,AC50,[36],1.58 µM (inconclusive)
Sc1nnc(-c2ccc(Br)cc2)n1-c1ccccc1.[Zn+2],IC50,[37],20.2 µM (inactive)
